The results in this text go back to patent EP2487171A1, “Dihydrobenzopyran, thiochroman, tetrahydroquinoleine and tetrahydronaphthalene derivatives and their use in anti-cancer therapy” (Université de Liège, priority 2011, dated 2012).

The structures appear in SMILES notation. Some results are limits rather than exact numbers.

Assay [1] relates to U373. Kind of assay: MTT colorimetric assay, overall cell growth. The note with it: Homo sapiens, U373 MG; U373 cells, 72 hours of incubation; read-out: IC50 (µM) In Vitro Growth Inhibitory Concentrations (MTT Colorimetric Assay) U373. The format is cell-based. Background: Tetrazolium assays rely on reduction of a dye to a coloured formazan, in cell work by metabolically active cells.
Experimental: (§1) The compounds and particularly dihydrobenzopyran, thiochroman, tetrahydroquinoleine and tetrahydronaphthalene derivatives of the invention were evaluated for their anti-proliferative effect (by means of the colorimetric MTT assay), in the following human glioblastoma cell-lines U373, T98G and Hs683 and in the mouse glioma cell line GL261. Normal brain cells (primocultures from newborn mice) were also used in order to determine the bioselectivity (B^N/C) of the compounds of interest, i.e. the ratio between the concentrations that inhibits 50% of the growth of brain cancer (C) cells (glioma cells) and the concentration that inhibits 50% of the growth of normal (N) brain cells (primocultures of astrocytes). The ideal situation to be reached is a bioselectivity of B^N/C > 10.
(§2) MTT tests were performed in order to rapidly, i.e. within 5 days, measure the effect of compounds of this invention on the overall cell growth. The test measured the number of metabolically active living cells that were able to transform the yellow product 3-(4,5-dimethylthiazol-2-yl)-2,5-diphenyl tetrazolium bromide (herein referred as MTT) into the blue product formazan dye by mitochondrial reduction. The amount of formazan obtained at the end of the experiment, measured by means of a spectrophotometer, is directly proportional to the number of living cells. Optical density determination thus enabled a quantitative measurement of the effect of the investigated compounds as compared to the control condition (untreated cells) and/or to other reference compounds.
(§3) Three human cancer cell lines were used in the following MTT tests.
(§4) To perform the assay, cells were allowed to grow in 96-well micro-wells with a flat bottom with an amount of 100 µl of cell suspension per well with 1,000 to 8,000 cells/well depending on the cell type used. Each cell line was seeded in its appropriate culture medium.
(§5) The detailed experimental procedure was the following: after a 24-hour period of incubation at 37°C, the culture medium was replaced by 100 µl of fresh medium in which the tested compound was previously dissolved, at the following molar concentrations: 10^-8 M, 5.10^-8 M, 10^-7 M, 5.10^-7 M, 10^-6 M, 5.10^-6 M, 10^-5 M, 5.10^-5 M and 10^-4 M. Each experiment was performed in sextuplicate (6 times).
(§6) After 72 hours of incubation at 37°C with (experimental conditions) or without (control condition) the compound to be tested, the medium was replaced by 100 µl MTT dissolved in RPMI (1640 without phenol red) at a concentration of 0.5 mg/ml. The micro-wells were subsequently incubated during 3 hours and a half at 37°C and centrifuged at 1300 rpm during 10 minutes. MTT was removed and formazan crystals formed were dissolved in 100 µl DMSO. The micro-wells were shaken for 5 minutes and read on a spectrophotometer at wavelengths of 570 nm (maximal formazan absorbance).
(§7) For each experimental condition, the mean optical density was calculated, allowing the determination of the percentage of remaining living cells in comparison to the control.

Assay [2] concerns Hs683. Put plainly: MTT colorimetric assay, overall cell growth. The format is cell-based. The note with it: Homo sapiens, Hs 683; Hs683 cells, 72 hours of incubation; read-out: IC50 (µM) In Vitro Growth Inhibitory Concentrations (MTT Colorimetric Assay) Hs683.
Experimental: as §1, §2, §3, §4, §5, §6, §7
The test system of assay [3] is T98G. Kind of assay: MTT colorimetric assay, overall cell growth. The following applies: Homo sapiens, 72 h, read-out: IC50 (µM) In Vitro Growth Inhibitory Concentrations (MTT Colorimetric Assay) T98G.
Experimental: The compounds and particularly dihydrobenzopyran, thiochroman, tetrahydroquinoleine and tetrahydronaphthalene derivatives of the invention were evaluated for their anti-proliferative effect (by means of the colorimetric MTT assay), in the following human glioblastoma cell-lines U373, T98G and Hs683 and in the mouse glioma cell line GL261. Normal brain cells (primocultures from newborn mice) were also used in order to determine the bioselectivity (B^N/C) of the compounds of interest, i.e. the ratio between the concentrations that inhibits 50% of the growth of brain cancer (C) cells (glioma cells) and the concentration that inhibits 50% of the growth of normal (N) brain cells (primocultures of astrocytes).
as §2, §3, §4, §5
The micro-wells were subsequently incubated during 3 hours and a half at 37°C and centrifuged at 1300 rpm during 10 minutes. MTT was removed and formazan crystals formed were dissolved in 100 µl DMSO. The micro-wells were shaken for 5 minutes and read on a spectrophotometer at wavelengths of 570 nm (maximal formazan absorbance).
as §7
The subject of assay [4] is human U373 glioma cell line. Kind of assay: Quantitative videomicroscopy (computer-assisted phase-contrast microscopy). The format is cell-based. The following applies: U373 cells treated at the IC50 concentration from MTT, filmed for 72h; cytostatic versus cytotoxic effects. From the text:
In addition, the inventors could establish that the compounds of the invention act through a non-apoptosis-related mechanism thanks to a unique experimental approach used by the inventors, i.e. computer-assisted phase-contrast microscopy (quantitative videomicroscopy), making them good candidates as anti-cancer drugs for treating apoptosis-resistant tumor or cancer cells and for overcoming problems linked to the known anti-cancer drugs.
As the MTT test is based on the mitochondria functions, we also investigated the effects of the compounds according to the invention on cell proliferation, migration and morphology by means of a cellular imaging approach (Debeir et al., Cytometry 60:29-40, 2004; Debeir et al., IEEE Trans Med Imaging 24:697-711, 2005) in the human U373 glioma cell line, which is apoptosis-resistant but autophagy-sensitive (Lefranc F et al., Neurosurgery 2008).
Cellular imaging relied on the use of computer-assisted phase-contrast microscopy making possible to film the behaviour of living cells in culture dishes for several days.
Cells were seeded in a 25-cm^2 flask at a low density, treated or not with the compounds of the invention (at their IC50 concentration determined previously by MTT tests) and filmed thereafter for a period of 72h. The experiment was conducted in triplicate.
The behaviour of the cells, in terms of morphology, growth and death were thus investigated. The effect on the overall growth was measured by counting the number of cells on the first (0h) and the last image (72h) of each film. The global growth ratio (GGR) was then deduced by dividing the number of cells on the last image by the number of cells on the first image. The ratio GGRtreated cells / GGRcontrol cells, was further calculated thereby obtaining a value that describes the effect of compounds of the present invention on the overall cell growth.
The methodology is fully described and validated in Debeir et al., 2008, Exp Cell Res 314:2985-2998 and Mathieu et al., 2009, J Cell Mol Med, Feb 20, 2009.
Thanks to the quantitative videomicroscopy (QVM) approach, we classified the compounds into 4 distinctive classes on the basis of their cytostatic versus cytotoxic effects (Table 3). • Class I: actually cytostatic for 3 days (< 10 % of cell death at the 3rd day) • Class II: cytostatic but becomes cytotoxic with < 10% cell death on the 2nd day and > 20% of cell death on the 3rd day • Class III: cytostatic but rapidly becomes cytotoxic with < 10% cell death on the 1st day, > 20% of cell death on the 2nd day and > 50% of cell death on the 3rd day • Class IV: cytotoxic (> 50% of cell death on the first day)
In Fig. 1a, compounds of example 14 (5 µM), example 19 (20 µM) and example 23 (5 µM) belong to QVM Class I because they display cytostatic effects on human U373 GBM cells during the whole duration of the experiment. Cytostatic effects mean that < 10 % of cell death was recorded at the end of the experiment, i.e. at the end of the 3rd day. QVM analyses enable the global growth ratio (GGR) to be calculated in each experiment. The GGR index is obtained by dividing the number of cells in the last image by the number of cells in the first image of the experiment, knowing that 1080 images are taken during the 72 h-period of observation. The ratio GGR^treated cells / GGR^control cells was further calculated thereby obtaining a value that describes the effect of compounds on the overall cell growth. Thus, a GGR index of 0.2 means that they remain only 20% of treated cells compare to the control cells at the end of the experiment.

For the compound `CC(C)(C)OC(=O)Nc1ccc2c(c1)C(NC(=O)Nc1ccccc1Cl)CC(C)(C)O2` (racemic) [Example 35, R/S-N-2-chlorophenyl-N'-(6-tert-butoxycarbonylamino-3,4-dihydro-2,2-dimethyl-2H-1-benzopyran-4-yl)urea], the IC50 in assay [1] worked out at 59 µM; in assay [2], 34 µM; in assay [3], 100 µM.

`CC(C)(C)OC(=O)Nc1ccc2c(c1)C(NC(=O)Nc1ccccc1Cl)CCO2` (racemic) [Example 1, R/S-N-2-chlorophenyl-N'-(6-tert-butoxycarbonylamino-3,4-dihydro-2H-1-benzopyran-4-yl)urea]: the IC50 in assay [1] is 26 µM; in assay [2], 23 µM; in assay [3], 24 µM.

`CC(C)(C)OC(=O)Nc1ccc2c(c1)C(NC(=O)Nc1ccc(Cl)cc1C(F)(F)F)CC(C)(C)O2` (racemic) [Example 37, R/S-N-4-chloro-2-trifluoromethylphenyl-N'-(6-tert-butoxycarbonylamino-3,4-dihydro-2,2-dimethyl-2H-1-benzopyran-4-yl)urea]: the figures for the IC50 in assay [1], in assay [2] and in assay [3] were 34 µM, 30 µM and 38 µM, respectively. Besides, in assay [4], the “QVM Class” value is “II (Class II: cytostatic but becomes cytotoxic with < 10% cell death on the 2nd day and > 20% of cell death on the 3rd day)”.

Take `CC(C)(C)OC(=O)Nc1ccc2c(c1)C(NC(=O)Nc1ccc([N+](=O)[O-])cc1)CC(C)(C)O2` (racemic) [Example 22, R/S-N-4-nitrophenyl-N'-(6-tert-butoxycarbonylamino-3,4-dihydro-2,2-dimethyl-2H-1-benzopyran-4-yl)urea]: the IC50 worked out at 24 µM in assay [1], 20 µM in assay [2] and 26 µM in assay [3]. Also, the “QVM Class” value in assay [4] was “IV (Class IV: cytotoxic (> 50% of cell death on the first day))”.

Regarding `CC(C)(C)OC(=O)Nc1ccc2c(c1)C(NC(=O)Nc1c(Cl)cccc1C(F)(F)F)CC(C)(C)O2` (racemic) [Example 32, R/S-N-2-chloro-6-trifluoromethylphenyl-N'-(6-tert-butoxycarbonylamino-3,4-dihydro-2,2-dimethyl-2H-1-benzopyran-4-yl)urea], the IC50 worked out at 60 µM in assay [1], 66 µM in assay [2] and 60 µM in assay [3]. In assay [4], the “QVM Class” value is “III (Class III: cytostatic but rapidly becomes cytotoxic with < 10% cell death on the 1st day, > 20% of cell death on the 2nd day and > 50% of cell death on the 3rd day)”.

For `CC(C)(C)OC(=O)Nc1ccc2c(c1)C(NC(=O)Nc1ccc(Br)cc1)CC(C)(C)O2` (racemic) [Example 34, R/S-N-4-bromophenyl-N'-(6-tert-butoxycarbonylamino-3,4-dihydro-2,2-dimethyl-2H-1-benzopyran-4-yl)urea], the IC50 turned out to be 22 µM in assay [1], 21 µM in assay [2] and 21 µM in assay [3]. For the same compound, in assay [4], the “QVM Class” value is “III (Class III: cytostatic but rapidly becomes cytotoxic with < 10% cell death on the 1st day, > 20% of cell death on the 2nd day and > 50% of cell death on the 3rd day)”.

For `CC(C)(C)OC(=O)Nc1ccc2c(c1)C(NC(=O)Nc1cccc(Br)c1)CC(C)(C)O2` (racemic) [Example 20, R/S-N-3-bromophenyl-N'-(6-tert-butoxycarbonylamino-3,4-dihydro-2,2-dimethyl-2H-1-benzopyran-4-yl)urea], the IC50 stood at 22 µM in assay [1], 18 µM in assay [2] and 26 µM in assay [3]. Moreover, in assay [4], the “QVM Class” value is “III (Class III: cytostatic but rapidly becomes cytotoxic with < 10% cell death on the 1st day, > 20% of cell death on the 2nd day and > 50% of cell death on the 3rd day)”.

On to `CC(C)(C)OC(=O)Nc1ccc2c(c1)C(NC(=O)Nc1ccc(C(F)(F)F)cc1Cl)CC(C)(C)O2` (racemic) [Example 30, R/S-N-2-chloro-4-trifluoromethylphenyl-N'-(6-tert-butoxycarbonylamino-3,4-dihydro-2,2-dimethyl-2H-1-benzopyran-4-yl)urea], for which the IC50 in assay [1] turned out to be 26 µM; in assay [2] it was 25 µM; in assay [3], 34 µM. In addition, the “QVM Class” value in assay [4] was “II (Class II: cytostatic but becomes cytotoxic with < 10% cell death on the 2nd day and > 20% of cell death on the 3rd day)”.

On to `CC(C)(C)OC(=O)Nc1ccc2c(c1)C(NC(=O)Nc1ccccc1C#N)CC(C)(C)O2` (racemic) [Example 36, R/S-N-2-cyanophenyl-N'-(6-tert-butoxycarbonylamino-3,4-dihydro-2,2-dimethyl-2H-1-benzopyran-4-yl)urea], for which the IC50 in assay [1] came to 45 µM; in assay [2], 54 µM; in assay [3] it was 67 µM. Further, the “QVM Class” value in assay [4] was “I (Class I: actually cytostatic for 3 days (< 10 % of cell death at the 3rd day))”.

In the case of `CC(C)(C)OC(=O)Nc1ccc2c(c1)C(NC(=O)Nc1cc(C(F)(F)F)ccc1Cl)CC(C)(C)O2` (racemic) [Example 31, R/S-N-2-chloro-5-trifluoromethylphenyl-N'-(6-tert-butoxycarbonylamino-3,4-dihydro-2,2-dimethyl-2H-1-benzopyran-4-yl)urea], the IC50 in assay [1] was 15 µM; in assay [2] it was 12 µM; in assay [3], 38 µM. Also, in assay [4], the “QVM Class” value is “II (Class II: cytostatic but becomes cytotoxic with < 10% cell death on the 2nd day and > 20% of cell death on the 3rd day)”.

In the case of `CC(C)(C)OC(=O)Nc1ccc2c(c1)C(NC(=O)Nc1ccccc1C#N)CCO2` (racemic) [Example 4, R/S-N-2-cyanophenyl-N'-(6-tert-butoxycarbonylamino-3,4-dihydro-2H-1-benzopyran-4-yl)urea], the figures for the IC50 in assay [1], in assay [2] and in assay [3] were 53 µM, 44 µM and 65 µM, respectively.

In the case of `CC(C)(C)OC(=O)Nc1ccc2c(c1)C(NC(=O)Nc1ccc(C#N)cc1)CCO2` (racemic) [Example 6, R/S-N-4-cyanophenyl-N'-(6-tert-butoxycarbonylamino-3,4-dihydro-2H-1-benzopyran-4-yl)urea], the IC50 stood at 42 µM in assay [1], 30 µM in assay [2] and 39 µM in assay [3].

Regarding `CC(C)(C)OC(=O)Nc1ccc2c(c1)C(NC(=O)Nc1cccc(Cl)c1)CCO2` (racemic) [Example 2, R/S-N-3-chlorophenyl-N'-(6-tert-butoxycarbonylamino-3,4-dihydro-2H-1-benzopyran-4-yl)urea], the IC50 in assay [1] came out at 19 µM; in assay [2] it was 28 µM; in assay [3], 29 µM.

Regarding `CC(C)(C)OC(=O)Nc1ccc2c(c1)C(NC(=O)Nc1ccc(Cl)cc1)CCO2` (racemic) [Example 3, R/S-N-4-chlorophenyl-N'-(6-tert-butoxycarbonylamino-3,4-dihydro-2H-1-benzopyran-4-yl)urea], the IC50 in assay [1] was 11 µM; in assay [2], > 100 µM; in assay [3], > 100 µM.

Consider `CC(C)(C)OC(=O)Nc1ccc2c(c1)C(NC(=O)Nc1cccc(C#N)c1)CCO2` (racemic) [Example 5, R/S-N-3-cyanophenyl-N'-(6-tert-butoxycarbonylamino-3,4-dihydro-2H-1-benzopyran-4-yl)urea], for which the IC50 was 29 µM in assay [1], 25 µM in assay [2] and 38 µM in assay [3].
